Measurements published in ChEMBL document CHEMBL5614434, “A Lysosome-Targeting hNEU1 Inhibitor Treats Myocardial Infarction: A Potential Therapeutic Breakthrough” (J Med Chem, 2024).

Legend:
[1] = Drug localization in lysosome of rat H9c2 cells by confocal microscopy based analysis; assay type: ADME, subcellular
[2] = Drug localization in Mitochondria of rat H9c2 cells by confocal microscopy based analysis; assay type: ADME
[3] = Drug uptake in lysosomes of rat H9c2 cells assessed as time required for compound concentration in lysosomes to exceed the cell lysates by HPLC analysis; assay type: ADME, subcellular, Lysosome

Structure (SMILES) | Drug uptake [1] | Drug uptake [2] | Time [3]
CCC(CC)O[C@@H]1C=C(C(=O)OCCN2CCOCC2)C[C@H](NC(=S)Nc2ccc3c(c2)C(=O)OC32c3ccc(O)cc3Oc3cc(O)ccc32)[C@H]1NC(C)=O | Active | Active | 
CCC(CC)O[C@@H]1C=C(C(=O)O)C[C@H](N)[C@H]1NC(C)=O [OSELTAMIVIR CARBOXYLATE] |  |  | 7.15 min
